Laboratory results reported in PubChem BioAssay (NCI).
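Briefly, cells in 96-well plates were exposed to five compound concentrations for 48 h, and endpoints were estimated by linear interpolation. GI50: concentration for 50% inhibition of growth. TGI: concentration producing complete growth inhibition.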

Tests used:
Assay in all cases: inhibition of tumour cell growth, NCI panel, 48 h
[1] = system: HCT-15 colon
[2] = system: DU-145 prostate
[3] = system: SF-295 CNS
[4] = system: MALME-3M melanoma
[5] = system: COLO 205 colon
[6] = system: K-562 leukemia
[7] = system: SK-MEL-2 melanoma
[8] = system: MCF7 breast
[9] = system: CCRF-CEM leukemia
[10] = system: MOLT-4 leukemia
[11] = system: UACC-257 melanoma
[12] = system: SN12C renal
[13] = system: SF-268 CNS
[14] = system: CAKI-1 renal
[15] = system: PC-3 prostate
[16] = system: SK-MEL-5 melanoma
[17] = system: KM12 colon
[18] = system: HS 578T breast
[19] = system: SK-OV-3 ovarian
[20] = system: HOP-62 NSCLC
[21] = system: SR leukemia
[22] = system: HCT-116 colon
[23] = system: BT-549 breast
[24] = system: HT29 colon
[25] = system: MDA-MB-231 breast
[26] = system: 786-0 renal
[27] = system: HCC-2998 colon
[28] = system: OVCAR-4 ovarian
[29] = system: SNB-19 CNS
[30] = system: RPMI-8226 leukemia
[31] = system: SF-539 CNS
[32] = system: MDA-MB-435
[33] = system: TK-10 renal
[34] = system: HL-60(TB) leukemia
[35] = system: RXF 393 renal
[36] = system: NCI/ADR-RES ovarian
[37] = system: OVCAR-8 ovarian
[38] = system: ACHN renal
[39] = system: SK-MEL-28 melanoma
[40] = system: EKVX NSCLC
[41] = system: U251 CNS
[42] = system: NCI-H23 lung
[43] = system: A549 NSCLC
[44] = system: OVCAR-3 ovarian
[45] = system: LOX IMVI melanoma
[46] = system: UO-31 renal
[47] = system: M14 melanoma
[48] = system: NCI-H460 lung
[49] = system: IGROV1 ovarian
[50] = system: NCI-H522 lung
[51] = system: SNB-75 CNS
[52] = system: NCI-H226 lung
[53] = system: UACC-62 melanoma
[54] = system: OVCAR-5 ovarian
[55] = system: SW-620 colon
[56] = system: T-47D breast
[57] = system: A498 renal

COc1ccc2c(c1)CC[C@@H]1[C@@H]2CC[C@]2(C)C(c3ccsc3)=C(/C=C/C(=O)c3ccccc3)C[C@@H]12
GI50 [1]: > 100 µM | TGI [1]: > 100 µM | GI50 [2]: > 100 µM | TGI [2]: > 100 µM | GI50 [3]: > 100 µM | TGI [3]: > 100 µM | GI50 [4]: > 100 µM | TGI [4]: > 100 µM | GI50 [5]: > 100 µM | TGI [5]: > 100 µM | GI50 [6]: > 100 µM | TGI [6]: > 100 µM | GI50 [7]: > 100 µM | TGI [7]: > 100 µM | GI50 [8]: > 100 µM | TGI [8]: > 100 µM | GI50 [9]: > 100 µM | TGI [9]: > 100 µM | GI50 [10]: 2.67 µM | TGI [10]: > 100 µM | GI50 [11]: > 100 µM | TGI [11]: > 100 µM | GI50 [12]: > 100 µM | TGI [12]: > 100 µM | GI50 [13]: > 100 µM | TGI [13]: > 100 µM | GI50 [14]: > 100 µM | TGI [14]: > 100 µM | GI50 [15]: 39 µM | TGI [15]: > 100 µM | GI50 [16]: > 100 µM | TGI [16]: > 100 µM | GI50 [17]: > 100 µM | TGI [17]: > 100 µM | GI50 [18]: > 100 µM | TGI [18]: > 100 µM | GI50 [19]: > 100 µM | TGI [19]: > 100 µM | GI50 [20]: > 100 µM | TGI [20]: > 100 µM | GI50 [21]: 19.9 µM | TGI [21]: > 100 µM | GI50 [22]: > 100 µM | TGI [22]: > 100 µM | GI50 [23]: > 100 µM | TGI [23]: > 100 µM | GI50 [24]: > 100 µM | TGI [24]: > 100 µM | GI50 [25]: > 100 µM | TGI [25]: > 100 µM | GI50 [26]: > 100 µM | TGI [26]: > 100 µM | GI50 [27]: 67.4 µM | TGI [27]: > 100 µM | GI50 [28]: > 100 µM | TGI [28]: > 100 µM | GI50 [29]: > 100 µM | TGI [29]: > 100 µM | GI50 [30]: 50.3 µM | TGI [30]: > 100 µM | GI50 [31]: > 100 µM | TGI [31]: > 100 µM | GI50 [32]: > 100 µM | TGI [32]: > 100 µM | GI50 [33]: > 100 µM | TGI [33]: > 100 µM | GI50 [34]: 13.4 µM | TGI [34]: > 100 µM | GI50 [35]: > 100 µM | TGI [35]: > 100 µM | GI50 [36]: > 100 µM | TGI [36]: > 100 µM | GI50 [37]: > 100 µM | TGI [37]: > 100 µM | GI50 [38]: > 100 µM | TGI [38]: > 100 µM | GI50 [39]: > 100 µM | TGI [39]: > 100 µM | GI50 [40]: > 100 µM | TGI [40]: > 100 µM | GI50 [41]: > 100 µM | TGI [41]: > 100 µM | GI50 [42]: > 100 µM | TGI [42]: > 100 µM | GI50 [43]: > 100 µM | TGI [43]: > 100 µM | GI50 [44]: > 100 µM | TGI [44]: > 100 µM | GI50 [45]: > 100 µM | TGI [45]: > 100 µM | GI50 [46]: > 100 µM | TGI [46]: > 100 µM | GI50 [47]: > 100 µM | TGI [47]: > 100 µM | GI50 [48]: > 100 µM | TGI [48]: > 100 µM | GI50 [49]: > 100 µM | TGI [49]: > 100 µM | GI50 [50]: > 100 µM | TGI [50]: > 100 µM | GI50 [51]: > 100 µM | TGI [51]: > 100 µM | GI50 [52]: > 100 µM | TGI [52]: > 100 µM | GI50 [53]: > 100 µM | TGI [53]: > 100 µM | GI50 [54]: > 100 µM | TGI [54]: > 100 µM | GI50 [55]: > 100 µM | TGI [55]: > 100 µM | GI50 [56]: > 100 µM | TGI [56]: > 100 µM | GI50 [57]: > 100 µM | TGI [57]: > 100 µM
